ChEMBL document CHEMBL3244056, “Synthesis and some pharmacological properties of [4-threonine, 7-glycine]oxytocin, [1-(L-2-hydroxy-3-mercaptopropanoic acid), 4-threonine, 7-glycine]oxytocin (hydroxy[Thr4, Gly7]oxytocin), and [7-Glycine]oxytocin, peptides with high oxytocic-antidiuretic selectivity” (J Med Chem, 1977)
Starred links: 1 amine or outer side, 2 acyl side, 3 side chain; linkers in the order of their positions; H or OH if unused. Positions of bridges follow the written chain, without caps; N, C: chain ends. Residues, ends and D or L forms follow the SMILES beside them. X1 = O=C([C@H](O)CS[*:2])[*:1]

Key:
[1] = species on record: Rattus norvegicus; experiment: Oxytocic potency in rat assessed as milk ejection; format: functional
[2] = species on record: Rattus norvegicus; experiment: Vasopressor activity in rat; format: ADME, organism-based; details: in vivo
[3] = Retardation factor, Rf value of the compound in butan-1-ol-acetic acid-water-pyridine (15:3:3:10v/v) solvent system; format: physicochemical; details: buffer
[4] = Oxytocic potency in rat by mammary strip assay; format: functional
[5] = Oxytocic potency in rat by uterus assay; format: functional
[6] = Retardation factor, Rf value of the compound in butan-1-ol-water (3.5% in acetic acid, 1.5% in pyridine) (1:1 v/v,upper phase) solvent system; format: physicochemical; details: buffer
[7] = tested on: Rattus norvegicus; experiment: Antidiuretic activity in iv dosed rat; format: ADME, organism-based, Urine; details: in vivo
[8] = species on record: Rattus norvegicus; experiment: Ratio of oxytocic potency to antidiuretic activity in rat; design: species or system Urine
[9] = Oxytocic potency in rat by uterus assay in presence of 0.5 mM Mg2+; format: functional
[10] = Retardation factor, Rf value of the compound in butan-1-ol-acetic acid-water-ethyl acetate (1:1:1:1 v/v) solvent system; format: physicochemical; details: buffer
[11] = Retardation factor, Rf value of the compound in butan-1-ol-acetic acid-water (4:1:5 v/v, upper phase) solvent system; format: physicochemical; details: buffer
[12] = species on record: Oryctolagus cuniculus; experiment: Oxytocic potency in rabbit assessed as milk ejection; format: functional

SMILES	Activity [2]	Rf [3]	Rf [6]	Activity [7]	Rf [10]	Rf [11]	Activity [1]	Activity [4]	Activity [5]	Ratio [8]	Activity [9]	Activity [12]
CC[C@H](C)[C@@H]1NC(=O)[C@H](Cc2ccc(O)cc2)NC(=O)[C@@H](N)CSSC[C@@H](C(=O)N2CCC[C@H]2C(=O)N[C@@H](CC(C)C)C(=O)NCC(N)=O)NC(=O)[C@H](CC(N)=O)NC(=O)[C@H]([C@@H](C)O)NC1=O (H-CYITNCPLG-NH2; disulfide 1-6)	0.43 U/mg			1.8 U/mg			543 U/mg		923 U/mg	510	719 U/mg	
CC[C@H](C)[C@@H]1NC(=O)[C@H](Cc2ccc(O)cc2)NC(=O)[C@H](O)CSSC[C@@H](C(=O)N2CCC[C@H]2C(=O)N[C@@H](CC(C)C)C(=O)NCC(N)=O)NC(=O)[C@H](CC(N)=O)NC(=O)[C@H]([C@@H](C)O)NC1=O (YITNCPLG-NH2; linker N-5 via X1)	4.92 U/mg			5.3 U/mg			808 U/mg	378 U/mg	4179 U/mg	790	937 U/mg	
CC[C@H](C)[C@@H]1NC(=O)[C@H](Cc2ccc(O)cc2)NC(=O)[C@@H](N)CSSC[C@@H](C(=O)N2CCC[C@H]2C(=O)N[C@@H](CC(C)C)C(=O)NCC(N)=O)NC(=O)[C@H](CC(N)=O)NC(=O)[C@H](CCC(N)=O)NC1=O [OXYTOCIN]				4 U/mg				533 U/mg	520 U/mg		486 U/mg	543 U/mg

Second part, led by results:

Activity [2]	Rf [3]	Rf [6]	Activity [7]	Rf [10]	Rf [11]	SMILES	Activity [1]	Activity [4]	Activity [5]	Ratio [8]	Activity [9]	Activity [12]
< 0.01 U/mg	0.75	0.17	0.0056 U/mg	0.74	0.3	CC[C@H](C)[C@@H]1NC(=O)[C@H](Cc2ccc(O)cc2)NC(=O)[C@@H](N)CSSC[C@@H](C(=O)NCC(=O)N[C@@H](CC(C)C)C(=O)NCC(N)=O)NC(=O)[C@H](CC(N)=O)NC(=O)[C@H](CCC(N)=O)NC1=O (H-CYIQNCGLG-NH2; disulfide 1-6)	392 U/mg	478 U/mg	65 U/mg	16600	965 U/mg	
< 0.01 U/mg	0.83	0.27	0.002 U/mg	0.85	0.37	CC[C@H](C)[C@@H]1NC(=O)[C@H](Cc2ccc(O)cc2)NC(=O)[C@@H](N)CSSC[C@@H](C(=O)NCC(=O)N[C@@H](CC(C)C)C(=O)NCC(N)=O)NC(=O)[C@H](CC(N)=O)NC(=O)[C@H]([C@@H](C)O)NC1=O (H-CYITNCGLG-NH2; disulfide 1-6)	802 U/mg	490 U/mg	166 U/mg	83000	857 U/mg	
< 0.01 U/mg	0.88	0.52	0.004 U/mg	0.89	0.56	CC[C@H](C)[C@@H]1NC(=O)[C@H](Cc2ccc(O)cc2)NC(=O)[C@H](O)CSSC[C@@H](C(=O)NCC(=O)N[C@@H](CC(C)C)C(=O)NCC(N)=O)NC(=O)[C@H](CC(N)=O)NC(=O)[C@H]([C@@H](C)O)NC1=O (YITNCGLG-NH2; linker N-5 via X1)	950 U/mg	623 U/mg	218 U/mg	54500	1002 U/mg	
